ChEMBL document CHEMBL5291721, “A preclinical secondary pharmacology resource illuminates target-adverse drug reaction associations of marketed drugs” (Nat Commun, 2023)

Tests used:
Adenosine receptor A2a = Adenosine receptor A2a (Homo sapiens, UniProt P29274)
[1] = target: T1, Alpha-2A adrenergic receptor (Homo sapiens, UniProt P08913); type: functional, cell-based
T1 sequence (P08913 whole entry): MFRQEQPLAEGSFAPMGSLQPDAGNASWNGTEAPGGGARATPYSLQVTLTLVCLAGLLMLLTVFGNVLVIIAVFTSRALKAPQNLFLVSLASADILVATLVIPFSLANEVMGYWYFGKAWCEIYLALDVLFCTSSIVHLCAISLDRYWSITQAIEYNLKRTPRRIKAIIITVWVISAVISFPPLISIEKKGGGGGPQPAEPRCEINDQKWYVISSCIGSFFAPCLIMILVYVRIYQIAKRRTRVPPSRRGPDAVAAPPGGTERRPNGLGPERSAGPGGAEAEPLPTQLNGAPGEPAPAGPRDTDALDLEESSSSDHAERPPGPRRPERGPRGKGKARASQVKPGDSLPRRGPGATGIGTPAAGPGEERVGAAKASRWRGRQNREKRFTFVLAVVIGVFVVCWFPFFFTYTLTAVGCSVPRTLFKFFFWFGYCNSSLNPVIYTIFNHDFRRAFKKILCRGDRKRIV

[2] = target: Beta-2 adrenergic receptor (Homo sapiens, UniProt P07550); type: functional, cell-based
Sequence of Beta-2 adrenergic receptor (P07550 whole entry): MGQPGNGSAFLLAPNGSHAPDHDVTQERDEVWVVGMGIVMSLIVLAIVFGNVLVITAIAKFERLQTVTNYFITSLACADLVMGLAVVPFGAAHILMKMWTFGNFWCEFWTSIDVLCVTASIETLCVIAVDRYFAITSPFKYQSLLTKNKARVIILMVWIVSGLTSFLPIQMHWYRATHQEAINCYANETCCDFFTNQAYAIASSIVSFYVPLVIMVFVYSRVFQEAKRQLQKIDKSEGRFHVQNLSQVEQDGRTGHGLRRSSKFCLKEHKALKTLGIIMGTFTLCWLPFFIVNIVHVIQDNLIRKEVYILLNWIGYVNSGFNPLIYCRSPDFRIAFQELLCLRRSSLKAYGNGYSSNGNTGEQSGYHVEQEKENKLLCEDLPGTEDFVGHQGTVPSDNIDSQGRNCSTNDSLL

B2 bradykinin receptor = target: T2, B2 bradykinin receptor (Homo sapiens, UniProt P30411)
T2 sequence (P30411 whole entry): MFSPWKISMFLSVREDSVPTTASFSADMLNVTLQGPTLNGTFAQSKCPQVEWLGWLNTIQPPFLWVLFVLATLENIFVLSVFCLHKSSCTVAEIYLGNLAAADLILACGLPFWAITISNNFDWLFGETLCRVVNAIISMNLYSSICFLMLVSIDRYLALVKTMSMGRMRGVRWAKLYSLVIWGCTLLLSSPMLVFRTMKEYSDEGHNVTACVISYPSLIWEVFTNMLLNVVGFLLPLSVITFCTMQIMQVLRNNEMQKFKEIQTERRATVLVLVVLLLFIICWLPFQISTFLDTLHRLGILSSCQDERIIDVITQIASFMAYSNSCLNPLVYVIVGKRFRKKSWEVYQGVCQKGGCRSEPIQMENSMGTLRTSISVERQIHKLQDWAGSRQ

[3] = target: Voltage-dependent L-type calcium channel subunit alpha-1C (Rattus norvegicus, UniProt P22002); type: functional
Sequence of Voltage-dependent L-type calcium channel subunit alpha-1C (P22002 whole entry): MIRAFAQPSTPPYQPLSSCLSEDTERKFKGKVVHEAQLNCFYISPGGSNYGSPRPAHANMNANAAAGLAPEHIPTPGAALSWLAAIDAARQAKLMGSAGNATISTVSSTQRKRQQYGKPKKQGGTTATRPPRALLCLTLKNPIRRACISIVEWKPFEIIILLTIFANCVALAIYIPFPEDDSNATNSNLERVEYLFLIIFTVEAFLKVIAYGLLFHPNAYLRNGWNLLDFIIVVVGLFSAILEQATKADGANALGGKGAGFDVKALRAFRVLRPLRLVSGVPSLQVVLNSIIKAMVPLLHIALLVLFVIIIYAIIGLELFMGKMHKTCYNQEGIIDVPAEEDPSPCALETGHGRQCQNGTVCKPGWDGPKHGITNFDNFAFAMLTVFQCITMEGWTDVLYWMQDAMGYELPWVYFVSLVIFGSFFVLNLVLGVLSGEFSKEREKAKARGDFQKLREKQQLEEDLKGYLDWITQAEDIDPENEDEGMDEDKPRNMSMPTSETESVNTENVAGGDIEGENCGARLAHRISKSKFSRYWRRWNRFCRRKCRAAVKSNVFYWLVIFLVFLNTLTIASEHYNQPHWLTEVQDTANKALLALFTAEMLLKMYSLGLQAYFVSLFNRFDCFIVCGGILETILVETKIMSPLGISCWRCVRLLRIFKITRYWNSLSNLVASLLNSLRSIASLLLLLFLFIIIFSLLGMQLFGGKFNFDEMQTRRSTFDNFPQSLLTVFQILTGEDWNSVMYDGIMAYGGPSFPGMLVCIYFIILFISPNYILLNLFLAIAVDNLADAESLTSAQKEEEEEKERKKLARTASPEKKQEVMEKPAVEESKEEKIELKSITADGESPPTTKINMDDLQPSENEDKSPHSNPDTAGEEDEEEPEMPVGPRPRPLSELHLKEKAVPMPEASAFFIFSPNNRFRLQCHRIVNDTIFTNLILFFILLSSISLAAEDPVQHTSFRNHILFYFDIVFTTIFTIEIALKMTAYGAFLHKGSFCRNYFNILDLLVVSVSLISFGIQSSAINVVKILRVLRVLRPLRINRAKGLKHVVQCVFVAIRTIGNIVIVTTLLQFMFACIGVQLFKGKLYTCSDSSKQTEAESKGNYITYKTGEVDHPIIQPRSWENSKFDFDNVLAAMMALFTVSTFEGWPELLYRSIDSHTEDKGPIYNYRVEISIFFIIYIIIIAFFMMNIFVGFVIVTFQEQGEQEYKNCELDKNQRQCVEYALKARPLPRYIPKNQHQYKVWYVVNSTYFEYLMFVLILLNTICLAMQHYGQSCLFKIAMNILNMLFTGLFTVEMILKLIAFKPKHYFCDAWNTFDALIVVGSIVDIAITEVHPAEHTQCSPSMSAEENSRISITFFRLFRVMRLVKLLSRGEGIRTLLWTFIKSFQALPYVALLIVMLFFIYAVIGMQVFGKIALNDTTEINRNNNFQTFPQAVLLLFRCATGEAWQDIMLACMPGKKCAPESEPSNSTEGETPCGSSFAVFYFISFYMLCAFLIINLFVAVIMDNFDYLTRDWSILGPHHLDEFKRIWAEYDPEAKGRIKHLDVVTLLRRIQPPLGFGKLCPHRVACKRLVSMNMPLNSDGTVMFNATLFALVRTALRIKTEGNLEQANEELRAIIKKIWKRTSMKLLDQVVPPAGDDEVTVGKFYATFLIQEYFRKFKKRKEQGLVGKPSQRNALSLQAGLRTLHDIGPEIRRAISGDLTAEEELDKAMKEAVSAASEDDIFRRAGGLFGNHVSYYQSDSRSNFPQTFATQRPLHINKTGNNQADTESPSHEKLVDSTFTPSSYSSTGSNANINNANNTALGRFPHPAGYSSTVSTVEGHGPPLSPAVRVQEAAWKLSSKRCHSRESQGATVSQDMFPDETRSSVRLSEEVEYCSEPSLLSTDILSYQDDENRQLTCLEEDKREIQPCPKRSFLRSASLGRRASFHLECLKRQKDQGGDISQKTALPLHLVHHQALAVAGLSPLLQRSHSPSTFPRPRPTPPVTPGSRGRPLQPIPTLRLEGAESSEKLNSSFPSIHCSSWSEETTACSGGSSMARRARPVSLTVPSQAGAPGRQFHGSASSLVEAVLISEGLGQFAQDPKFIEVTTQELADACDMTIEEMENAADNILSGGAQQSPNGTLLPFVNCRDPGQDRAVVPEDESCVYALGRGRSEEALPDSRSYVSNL

Cannabinoid receptor 1 = Cannabinoid receptor 1 (Homo sapiens, UniProt P21554); type: functional, cell-based
Sequence of Cannabinoid receptor 1 (P21554 whole entry): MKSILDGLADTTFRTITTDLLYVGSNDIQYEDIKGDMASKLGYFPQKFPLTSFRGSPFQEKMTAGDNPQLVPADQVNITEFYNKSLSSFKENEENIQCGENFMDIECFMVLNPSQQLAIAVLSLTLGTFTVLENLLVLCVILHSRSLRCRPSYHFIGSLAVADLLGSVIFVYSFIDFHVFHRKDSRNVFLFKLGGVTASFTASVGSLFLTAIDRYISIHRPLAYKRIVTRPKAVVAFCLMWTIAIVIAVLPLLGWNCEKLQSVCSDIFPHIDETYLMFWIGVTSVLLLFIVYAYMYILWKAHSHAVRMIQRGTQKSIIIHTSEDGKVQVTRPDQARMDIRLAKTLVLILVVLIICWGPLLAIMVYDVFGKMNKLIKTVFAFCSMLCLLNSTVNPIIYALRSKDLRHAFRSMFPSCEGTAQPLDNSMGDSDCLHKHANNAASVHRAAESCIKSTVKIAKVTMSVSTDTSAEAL

Histamine H1 receptor = Histamine H1 receptor (Homo sapiens, UniProt P35367)
Sequence of Histamine H1 receptor (P35367 whole entry): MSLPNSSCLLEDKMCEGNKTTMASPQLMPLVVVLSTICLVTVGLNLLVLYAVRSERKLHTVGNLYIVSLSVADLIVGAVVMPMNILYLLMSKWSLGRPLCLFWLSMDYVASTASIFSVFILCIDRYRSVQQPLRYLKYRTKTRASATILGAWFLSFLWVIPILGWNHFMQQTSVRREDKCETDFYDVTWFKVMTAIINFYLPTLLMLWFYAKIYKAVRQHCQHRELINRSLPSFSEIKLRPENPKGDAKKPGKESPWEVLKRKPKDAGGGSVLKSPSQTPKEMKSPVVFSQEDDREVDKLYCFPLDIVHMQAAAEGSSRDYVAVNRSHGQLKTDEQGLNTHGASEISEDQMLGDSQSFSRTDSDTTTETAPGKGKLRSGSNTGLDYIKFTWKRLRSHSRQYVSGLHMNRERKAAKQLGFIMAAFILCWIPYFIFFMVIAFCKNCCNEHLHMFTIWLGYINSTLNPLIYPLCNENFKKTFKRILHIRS

[4] = target: 5-hydroxytryptamine receptor 2B (Homo sapiens, UniProt P41595); type: functional, cell-based
Sequence of 5-hydroxytryptamine receptor 2B (P41595 whole entry): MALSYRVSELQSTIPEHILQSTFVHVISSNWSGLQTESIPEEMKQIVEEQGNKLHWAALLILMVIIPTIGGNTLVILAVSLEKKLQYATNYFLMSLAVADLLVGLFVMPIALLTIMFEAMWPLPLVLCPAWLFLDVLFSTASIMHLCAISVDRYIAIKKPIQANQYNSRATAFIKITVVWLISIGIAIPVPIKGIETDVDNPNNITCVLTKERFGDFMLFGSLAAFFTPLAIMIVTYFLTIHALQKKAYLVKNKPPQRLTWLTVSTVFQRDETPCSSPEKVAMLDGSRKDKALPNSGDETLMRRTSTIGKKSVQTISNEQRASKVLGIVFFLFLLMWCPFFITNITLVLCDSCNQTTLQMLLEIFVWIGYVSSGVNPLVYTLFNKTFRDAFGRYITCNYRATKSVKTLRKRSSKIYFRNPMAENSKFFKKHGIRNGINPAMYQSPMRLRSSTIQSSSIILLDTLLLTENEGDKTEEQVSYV

Progesterone receptor = target: T3, Progesterone receptor (Homo sapiens, UniProt P06401); type: functional
T3 sequence (P06401 whole entry): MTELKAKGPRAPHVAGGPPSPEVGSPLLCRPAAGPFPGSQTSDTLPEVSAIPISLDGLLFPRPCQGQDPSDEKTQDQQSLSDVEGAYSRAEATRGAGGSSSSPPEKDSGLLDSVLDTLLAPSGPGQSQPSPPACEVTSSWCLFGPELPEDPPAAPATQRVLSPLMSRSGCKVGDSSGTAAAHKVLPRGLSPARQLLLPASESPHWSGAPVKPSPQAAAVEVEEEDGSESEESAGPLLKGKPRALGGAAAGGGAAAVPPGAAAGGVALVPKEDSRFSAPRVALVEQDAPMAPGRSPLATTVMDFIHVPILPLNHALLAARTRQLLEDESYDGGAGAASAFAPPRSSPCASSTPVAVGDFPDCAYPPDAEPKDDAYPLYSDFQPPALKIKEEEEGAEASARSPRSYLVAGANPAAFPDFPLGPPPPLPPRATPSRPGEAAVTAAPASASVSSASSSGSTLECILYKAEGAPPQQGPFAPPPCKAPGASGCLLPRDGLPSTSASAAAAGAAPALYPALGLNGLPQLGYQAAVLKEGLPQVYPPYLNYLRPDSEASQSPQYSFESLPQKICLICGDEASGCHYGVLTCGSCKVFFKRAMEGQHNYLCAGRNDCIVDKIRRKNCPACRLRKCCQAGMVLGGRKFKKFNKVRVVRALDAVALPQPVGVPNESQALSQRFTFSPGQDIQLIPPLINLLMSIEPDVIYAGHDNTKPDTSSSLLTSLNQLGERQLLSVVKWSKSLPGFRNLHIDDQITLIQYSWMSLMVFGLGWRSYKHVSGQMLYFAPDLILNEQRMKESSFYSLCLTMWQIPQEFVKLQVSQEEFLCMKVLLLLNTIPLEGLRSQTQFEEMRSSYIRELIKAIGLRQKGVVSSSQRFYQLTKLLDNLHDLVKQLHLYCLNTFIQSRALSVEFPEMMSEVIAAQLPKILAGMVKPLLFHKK

Mu-type opioid receptor = Mu-type opioid receptor (Homo sapiens, UniProt P35372)
Sequence of Mu-type opioid receptor (P35372 whole entry): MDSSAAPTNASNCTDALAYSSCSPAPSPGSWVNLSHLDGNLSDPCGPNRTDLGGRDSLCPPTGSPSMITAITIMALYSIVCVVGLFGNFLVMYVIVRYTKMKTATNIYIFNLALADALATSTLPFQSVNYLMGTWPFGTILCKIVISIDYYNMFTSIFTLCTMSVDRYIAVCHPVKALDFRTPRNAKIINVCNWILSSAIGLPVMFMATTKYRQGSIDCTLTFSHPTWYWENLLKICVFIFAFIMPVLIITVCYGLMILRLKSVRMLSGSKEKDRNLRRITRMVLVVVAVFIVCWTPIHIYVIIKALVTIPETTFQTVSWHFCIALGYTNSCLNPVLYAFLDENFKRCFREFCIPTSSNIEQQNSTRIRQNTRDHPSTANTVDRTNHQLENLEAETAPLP

Endothelin-1 receptor = target: T4, Endothelin-1 receptor (Homo sapiens, UniProt P25101)
T4 sequence (P25101 whole entry): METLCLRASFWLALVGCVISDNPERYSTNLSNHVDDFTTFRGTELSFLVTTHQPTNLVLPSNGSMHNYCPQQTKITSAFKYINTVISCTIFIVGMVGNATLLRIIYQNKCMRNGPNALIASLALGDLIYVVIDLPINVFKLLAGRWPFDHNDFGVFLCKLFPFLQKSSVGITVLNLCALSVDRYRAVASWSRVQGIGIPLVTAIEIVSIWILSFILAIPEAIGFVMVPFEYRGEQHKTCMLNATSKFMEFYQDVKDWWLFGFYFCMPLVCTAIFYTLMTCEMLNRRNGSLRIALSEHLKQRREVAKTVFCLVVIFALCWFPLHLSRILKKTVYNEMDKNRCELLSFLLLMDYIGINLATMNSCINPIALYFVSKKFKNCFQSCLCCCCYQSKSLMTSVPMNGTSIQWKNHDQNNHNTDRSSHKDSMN
Further: assay procedure not described here.

Sequence of Adenosine receptor A2a (P29274 whole entry): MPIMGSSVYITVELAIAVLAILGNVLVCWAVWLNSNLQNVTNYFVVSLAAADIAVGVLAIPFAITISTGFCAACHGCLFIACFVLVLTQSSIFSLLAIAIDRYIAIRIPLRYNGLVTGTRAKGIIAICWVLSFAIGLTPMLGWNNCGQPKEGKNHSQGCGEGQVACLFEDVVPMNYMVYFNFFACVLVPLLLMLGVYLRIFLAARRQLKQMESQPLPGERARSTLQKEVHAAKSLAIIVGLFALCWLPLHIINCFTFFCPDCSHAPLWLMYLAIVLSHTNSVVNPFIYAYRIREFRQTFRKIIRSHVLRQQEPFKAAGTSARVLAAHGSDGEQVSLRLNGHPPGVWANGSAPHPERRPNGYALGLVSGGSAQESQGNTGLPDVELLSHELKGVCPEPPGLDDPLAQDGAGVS

Structure (SMILES) | AC50 (Adenosine receptor A2a) [µM] | AC50 [1] [µM] | AC50 [2] [µM] | AC50 (B2 bradykinin receptor) [µM] | AC50 [3] [µM] | AC50 (Cannabinoid receptor 1) [µM] | AC50 (Histamine H1 receptor) [µM] | AC50 [4] [µM] | AC50 (Progesterone receptor) [µM] | AC50 (Mu-type opioid receptor) [µM] | AC50 (Endothelin-1 receptor) [µM]
CC(=O)c1ccc(S(=O)(=O)NC(=O)NC2CCCCC2)cc1 [ACETOHEXAMIDE] | > 10 | > 30 | > 30 | > 10 | > 10 | > 30 | > 10 | > 30 | > 10 | > 30 | –
CC(CN(C)C)C(C)(O)Cc1ccc(Cl)cc1 (stereo not drawn) [CLOBUTINOL] | > 30 | > 10 | > 30 | > 30 | > 10 | > 30 | > 10 | > 10 | > 30 | > 30 | –
CCCCOc1ccc(C(=O)CCN2CCCCC2)cc1 [DYCLONINE] | > 30 | > 10 | > 30 | > 30 | > 10 | > 30 | 8.5 | > 10 | – | > 10 | > 30
O=c1[nH]c2ccccc2n1CCCN1CCN(C(c2ccccc2)c2ccccc2)CC1 [OXATOMIDE] | > 30 | > 30 | > 30 | > 30 | – | > 30 | 0.034 | > 30 | > 30 | 1.2 | > 30
CCC(=O)O[C@](Cc1ccccc1)(c1ccccc1)[C@H](C)CN(C)C [PROPOXYPHENE] | > 30 | > 10 | > 30 | > 30 | > 10 | > 30 | > 10 | > 10 | – | 0.693 | > 30
CCc1nc(N)nc(N)c1-c1ccc(Cl)cc1 [PYRIMETHAMINE] | > 10 | 9.8 | > 30 | > 10 | > 10 | > 30 | > 30 | 37 | > 10 | > 30 | –
C=CCN1CCc2nc(N)sc2CC1 [TALIPEXOLE] | > 30 | 0.083 | > 30 | > 30 | > 30 | > 30 | 28 | > 30 | > 30 | – | > 30
CCOC(=O)c1ccc(C#Cc2ccc3c(c2)C(C)(C)CCS3)nc1 [TAZAROTENE] | > 30 | > 10 | > 30 | > 30 | > 10 | – | > 10 | > 10 | – | > 30 | –
CCOC(=O)[C@@H](N)Cc1ccc(-c2cc(O[C@H](c3ccc(Cl)cc3-n3ccc(C)n3)C(F)(F)F)nc(N)n2)cc1 [TELOTRISTAT ETHYL] | > 30 | > 30 | > 30 | > 30 | – | > 30 | > 30 | > 30 | > 30 | > 30 | > 30
